Experiments:
Type in all cases: in vivo
Soybean = Soybean Trial 1, pot trial, foliar spray at V2-V3; details: for Final Seed Yield at Harvest (g per pot): one plant per pot; for Rooting (0-9) + 28 Days: score 0-9, 28 days after spraying
Winter wheat cv Limerick = assay: Winter wheat Trial 3, pot trial, sprayed at GS23; details: for Total No of Shoots/Plant at GS33 / Total No of “Large” Shoots/Plant at GS33 / Rooting (0-9) + 28 Days / Final Seed Yield + % / Rooting + % / Total No of Shoots/Plant + % / Total No of “Large” Shoots/Plant + %: winter wheat pots; for Rooting (0-9) + 28 Days: score 0-9, 28 days after spraying; for Final Seed Yield + % / Rooting + % / Total No of Shoots/Plant + % / Total No of “Large” Shoots/Plant + %: increase over the line given as 0 (untreated or growth regulator alone); for Final Seed Yield at Harvest (g per pot): winter wheat, eight plants per pot
Procedure: The applied concentration of chemical can vary widely depending on the water volume applied to plants as well as other factors such as plant age and size, and plant sensitivity to the product. […] The rate of other components such as spreaders and stickers can be 50-200 ml per ha. C. […] Sprayed: 10 June, at GS23 (early-mid tillering). Plants were scored/assessed at GS33 on 12 July, with other measurements at crop maturity.

Navy bean cv Primel = assay: Navy bean Trial 2, pot trial, foliar spray at V2-V3; details: for Final Seed Yield at Harvest (g per pot): one plant per pot; for Rooting (0-9) + 28 Days: score 0-9, 28 days after spraying
[1] = soybean, increase over the line given as 0 (untreated or growth regulator alone)
[2] = navy bean, increase over the line given as 0 (untreated or growth regulator alone)

Row | SMILES | No of Large Pod Bearing Branches/Plant at Harvest (Soybean; soybean) | Final Seed Yield at Harvest (g per pot) (Soybean; soybean) | Plant Biomass Score (0-9) at Harvest (Soybean; soybean) | Rooting (0-9) + 28 Days (Soybean; soybean) | No of Large Pod Bearing Branches/Plant + % (Soybean; [1]) | Plant Biomass Score + % (Soybean; [1]) | Total No of Shoots/Plant at GS33 (Winter wheat cv Limerick) | Total No of “Large” Shoots/Plant at GS33 (Winter wheat cv Limerick) | Rooting (0-9) + 28 Days (Winter wheat cv Limerick) | Final Seed Yield + % (Winter wheat cv Limerick) | Rooting + % (Winter wheat cv Limerick) | Total No of Shoots/Plant + % (Winter wheat cv Limerick) | Total No of “Large” Shoots/Plant + % (Winter wheat cv Limerick) | Final Seed Yield at Harvest (g per pot) (Winter wheat cv Limerick) | No of Large Pod Bearing Branches/Plant at Harvest (Navy bean cv Primel; navy bean) | Final Seed Yield at Harvest (g per pot) (Navy bean cv Primel; navy bean) | Plant Biomass Score (0-9) at Harvest (Navy bean cv Primel; navy bean) | Rooting (0-9) + 28 Days (Navy bean cv Primel; navy bean) | No of Large Pod Bearing Branches/Plant + % (Navy bean cv Primel; [2]) | Plant Biomass Score + % (Navy bean cv Primel; [2]) | other results
1 | CC(=O)Nc1ccc(O)cc1 [AC, N-(4-hydroxypheyl)acetamide] | 1.0 | 34.0 g per pot | 5.2 | 4.2 | 0% | 0% | 3.0 | 2.0 | 5.4 | 0% | 0% | 0% | 0% | 33.9 g per pot | 1.0 | 52.4 g per pot | 5.2 | 7.0 | 0% | 0% | Final Seed Yield + % (Soybean; [1]): 2%; Rooting + % (Soybean; [1]): 0%; Final Seed Yield + % (Navy bean cv Primel; [2]): 8%; Rooting + % (Navy bean cv Primel; [2]): 0%
2 | Nc1ccccc1C(=O)O [AN, anthranilic acid] | 1.0 | 34.8 g per pot | 5.2 | 4.3 | 0% | 0% | 3.0 | 2.0 | 5.4 | 0% | 0% | 0% | 0% | 33.6 g per pot | 1.0 | 52.0 g per pot | 5.2 | 7.2 | 0% | 0% | Final Seed Yield + % (Soybean; in vivo): 5%; Rooting + % (Soybean; in vivo): 2%; Final Seed Yield + % (Navy bean cv Primel; in vivo): 7%; Rooting + % (Navy bean cv Primel; in vivo): 3%
3 | CC1(C)CCC(Cc2ccc(Cl)cc2)C1(O)Cn1cncn1 (stereo not drawn) [MET2, Metconazole] | 1.0 | 36.6 g per pot | 6.0 | 5.2 | 0% | 0% | 3.8 | 2.6 | 6.0 | 0% | 0% | 0% | 0% | 36.0 g per pot | 1.2 | 57.4 g per pot | 5.1 | 7.0 | 0% | 0% | Final Seed Yield + % (Soybean; [1]): 0%; Rooting + % (Soybean; [1]): 0%; Final Seed Yield + % (Navy bean cv Primel; [2]): 0%; Rooting + % (Navy bean cv Primel; [2]): 0%
4 | CC1(C)CCC(Cc2ccc(Cl)cc2)C1(O)Cn1cncn1 (stereo not drawn) [MET, Metconazole] | 1.1 | 36.6 g per pot | 6.0 | 5.2 | 0% | 0% | 3.8 | 2.6 | 6.0 | 0% | 0% | 0% | 0% | 36.2 g per pot | 1.2 | 57.2 g per pot | 5.2 | 7.0 | 0% | 0% | Final Seed Yield + % (Soybean; [1]): 0%; Rooting + % (Soybean; [1]): 0%; Final Seed Yield + % (Navy bean cv Primel; [2]): 0%; Rooting + % (Navy bean cv Primel; [2]): 0%

From patent publication US20120108431A1, “PLANT GROWTH REGULATOR ADDITIVE” (TAMINCO, NAAMLOZE VENNOOTSCHAP, priority 2009, published 2012)
